Among the data in patent US20110224079A1, “SPIROHETEROCYCLIC N-OXYAMIDES AS PESTICIDES” (SYNGENTA CROP PROTECTION LLC, priority 2008, published 2011) are melting point, pest or weed control and mortality values, retold here.

Series [1] relates to Aonidiella Aurantii (red scale). Description: Example B12: activity against Aonidiella aurantii, dipped potato tubers. In kind it is in vivo. Conditions: 6-8 weeks after application, read-out: activity (number of crawlers of the next generation). The text has this: Activity Against Aonidiella Aurantii (Red Scale)
Treatment of potato tubers by dipping the in the test solution. One day later, tubers are infested with about 50 crawlers. 6-8 weeks after application samples are checked for the number of crawlers of the next generation (compared to the non treated samples).

Series [2] deals with Myzus persicae (green peach aphid). The series is described as follows: Example B2: activity against Myzus persicae, pea seedling roots in test solution (systemic/feeding, curative). Conditions: 144 h, read-out: activity (mortality).
Series [3] has the same test system. Description: Example B13: drench activity against Myzus persicae, pea seedlings in field soil. Particulars: 168 h, read-out: drench activity (mortality).
For series [4], the system named is Nilaparvata lugens (brown rice planthopper). Description: Example B8: activity against Nilaparvata lugens, sprayed rice seedlings (larvicide, feeding/contact). Conditions: in Oryza sativa, read-out: activity (mortality, growth regulation, effects on F1 generation).
The test system of series [5] is Myzus persicae (green peach aphid). Description: Example B1: activity against Myzus persicae, sprayed sunflower leaf discs (feeding/residual contact, preventive). Conditions: foliar, 144 h, read-out: activity (mortality).
The subject of series [6] is Bemisia tabaci (tobacco white fly). The series is described as follows: Example B7: activity against Bemisia tabaci, sprayed bean plants (larvicide, contact/feeding). In kind it is in vivo. Particulars: 504 h, bean plants with N-2 nymphs sprayed, three weeks, read-out: activity (efficacy, number of emerged adults). The procedure:
Activity Against Bemisia tabaci (Tobacco White Fly)
(Larvicide, Contact/Feeding)
Bean plants are infested with 20-30 adults that were removed after a 4 day egg-laying period. After another 7 days, bean plants with hatched nymphs (N-2) are treated (2 replicates) with the test solutions in a spray chamber. Three weeks later, samples are checked for number of emerged adults. Efficacy was calculated by comparing number of emerged adults in treated and non treated samples.

Series [7] has as its system Tetranychus urticae (two-spotted spider mite). The series is described as follows: Example B4: activity against Tetranychus urticae, sprayed bean leaf discs (feeding/residual contact, preventive). Particulars: foliar, 192 h, read-out: activity (egg, larval and adult mortality).
Series [8] has as its system Aphis Craccivora (cowpea aphid). The series is described as follows: Example B11: translaminar activity against Aphis craccivora on French bean leaves. In kind it is in vivo. Conditions: 120 h, upper leaf side painted, aphids on lower side, 5 days. Here is the method: Translaminar Activity Against Aphis Craccivora (Cowpea Aphid)
French bean leaves (Phaseolus vulgaris) are infested with about 20 mixed age individuals on the lower leaf side using clip cages. 1 day after the infestation, the upper side of the leaves is treated with the test solution by painting. 5 days later, samples are checked for mortality.

For series [9], the system named is Myzus persicae (green peach aphid). The series is described as follows: Example B17: activity against Myzus persicae on sprayed pepper plants (feeding/residual contact). The format is in vivo. Particulars: 144 h, infested pepper plants sprayed, 6 days.
The test system of series [10] is Frankliniella occidentalis (western flower thrips). Description: Example B6: activity against Frankliniella occidentalis, bean leaf discs or bean plants. The format is in vivo. Particulars: foliar, 6 days (leaf discs) or 14 days (plants) after infestation, read-out: activity (reduction of treated population). Here is the method:
Activity Against Frankliniella occidentalis (Western Flower Thrips)
Bean leaf discs on agar in petri dishes or bean plants in a spray chamber are treated with diluted test solutions. After drying leaf discs are cut and placed in plastic cups on the surface of an agar layer and infested with mixed population. 6 days (leaf discs) or 14 days (plants) after the infestation, samples are checked for reduction of treated population and compared to the non treated population.

For series [11], the system named is Aphis Craccivora (cowpea aphid). The series is described as follows: Example B9: activity against Aphis craccivora, sprayed pea seedlings (contact/feeding). The format is in vivo. Particulars: 144 h, infested pea seedlings sprayed, 6 days. The source says:
(§1) Activity Against Aphis Craccivora (Cowpea Aphid)
(Mixed Population, Contact/Feeding)
6 days after treatment, samples are checked for mortality.

Series [12] has the same test system. Description: Example B10: activity against Aphis craccivora, pea seedling roots in test solution (systemic/feeding). Particulars: 144 h, roots of infested pea seedlings in test solution, 6 days. The format is in vivo.
From the text: as §1
(Mixed Population, Systemic/Feeding)

Series [13] deals with Thrips tabaci (onion thrips). Description: Example B3: activity against Thrips tabaci, sprayed sunflower leaf discs (feeding/residual contact, preventive). The format is in vivo. Conditions: foliar, 144 h, mixed population, 6 days. The text has this: Activity Against Thrips tabaci (Onion Thrips)
(Mixed Population, Feeding/Residual Contact Activity, Preventive)

Regarding `COCON1C(=O)C(c2cc(C)ccc2C)=C(OC(=O)CC(C)(C)C)C12CCN(OC)CC2` [P1.5], the melting point was in the range of 93 to 95 °C.

For `CCOC(=O)OC1=C(c2c(C)cc(C)cc2C)C(=O)N(OCCOC)C12CCN(OC)CC2` [P1.6], the pest or weed control at 200 ppm in series [1] and in series [6] was greater than 80% in each case. In addition, the mortality at 400 ppm in series [2], in [4], in series [5], in series [7] and in series [8] was greater than 80% throughout. Further, the mortality at 25 ppm in [3] is greater than 80%.

For the compound `CCOC(=O)OC1=C(c2c(C)cc(C)cc2C)C(=O)N(OCOCCOC)C12CCN(OC)CC2` [P1.27], the mortality at 400 ppm in series [2], in series [11], in series [12], in series [4], in [5] and in series [7] was greater than 80% throughout. This compound showed a mortality at 400 ppm in series [8] greater than 80%. Further, the mortality at 200 ppm in series [9] is no less than 80%. Besides, in series [10], the pest or weed control at 400 ppm was greater than 80%. Moreover, the mortality at 25 ppm in series [3] was greater than 80%.

The compound `COCON1C(=O)C(c2cc(C)ccc2C)=C(OC)C12CCN(OC)CC2` [P1.31] displayed a melting point of 91 to 93 °C.

As for `CCOC(=O)OC1=C(c2c(C)ccc(C)c2Cl)C(=O)N(OCCOC)C12CCN(OC)CC2` [P1.60], the mortality at 400 ppm in series [2], in [11], in series [12], in series [4], in series [5] and in series [7] was greater than 80% in each case. The mortality at 400 ppm in [8] was greater than 80%. For the same compound, in series [10], the pest or weed control at 400 ppm was greater than 80%. Besides, in [3], the mortality at 25 ppm was greater than 80%.

Consider `CCOC(=O)OC1=C(c2c(F)ccc(C)c2Cl)C(=O)N(OCOC)C12CCN(OC)CC2` [P1.61], for which the melting point lay in the range of 116 to 119 °C.

For `CCOC(=O)OC1=C(c2c(C)cc(C)cc2C)C(=O)N(OCC2CCOCC2)C12CCN(OC)CC2` [P1.82], the mortality at 400 ppm in [2], in series [11], in series [12], in series [4], in [5] and in series [7] was greater than 80% each time. Further, the mortality at 400 ppm in series [8] is greater than 80%. Also, the mortality at 200 ppm in series [9] was no less than 80%. The mortality at 25 ppm in [3] is greater than 80%. In addition, the pest or weed control at 200 ppm in series [6] is greater than 80%.

In turn, `CCOC(=O)OC1=C(c2c(C)cc(Cl)cc2C)C(=O)N(OC)C12CCN(OC)CC2` [P1.114] yielded a melting point of 122 to 125 °C.

Regarding `COCCON1C(=O)C(c2c(C)cc(C)cc2C)=C(O)C12CCN(OC)CC2` [P2.5], the pest or weed control at 200 ppm in series [1] and in series [6] was greater than 80% throughout. Also, the mortality at 400 ppm in [2], in [12], in [4], in series [5], in [7] and in series [8] was greater than 80% each time. Also, the mortality at 25 ppm in [3] was greater than 80%.

Consider `C#CCON1C(=O)C(c2c(C)cc(C)cc2C)=C(O)C12CCN(OC)CC2` [P2.8, 4-Hydroxy-8-methoxy-1-prop-2-ynyloxy-3-(2,4,6-trimethyl-phenyl)-1,8-diaza-spiro[4.5]dec-3-en-2-one], for which the pest or weed control at 200 ppm in series [1] and in [6] was greater than 80% each time. Further, the mortality at 400 ppm in series [2], in series [12], in series [4], in [5], in series [7] and in series [8] was greater than 80% throughout. Moreover, in [9], the mortality at 200 ppm was no less than 80%. In addition, in series [3], the mortality at 25 ppm is greater than 80%.

In the case of `CCON1C(=O)C(c2c(C)cc(C)cc2C)=C(O)C12CCN(OC)CC2` [P2.9], the mortality at 400 ppm in series [2], in series [11], in [12], in [4], in series [5] and in series [8] was greater than 80% throughout. This compound came in with a mortality at 200 ppm in series [9] of no less than 80%. Also, the pest or weed control at 400 ppm in series [10] was greater than 80%. In [3], the mortality at 25 ppm was greater than 80%. Further, the pest or weed control at 200 ppm in [6] is greater than 80%.

With `CON1CCC2(CC1)C(O)=C(c1c(C)cc(C)cc1C)C(=O)N2OCC1CC1` [P2.13], the mortality at 400 ppm in [2], in [11], in series [12], in [4], in series [5] and in series [13] was greater than 80% throughout. The mortality at 400 ppm in series [7] and in series [8] was greater than 80% each time. This compound yielded a mortality at 200 ppm in [9] of no less than 80%. Further, the pest or weed control at 400 ppm in [10] is greater than 80%. Besides, in series [3], the mortality at 25 ppm is greater than 80%.

Turning to `COCON1C(=O)C(c2c(C)cc(-c3ccc(Cl)cc3)cc2C)=C(O)C12CCN(OC)CC2` [P2.15, 3-(4′-Chloro-3,5-dimethyl-biphenyl-4-yl)-4-hydroxy-8-methoxy-1-methoxymethoxy-1,8-diaza-spiro[4.5]dec-3-en-2-one], the melting point was 128 °C (dec.).

On to `CON1CCC2(CC1)C(O)=C(c1c(C)cc(C)cc1C)C(=O)N2OCCOC1CCCCO1` (stereo not drawn) [P2.22], for which the melting point was in the range of 135 to 137 °C.

Regarding `COCON1C(=O)C(c2c(C)cc(C)cc2Cl)=C(O)C12CCN(OC)CC2` [P2.34], the mortality at 400 ppm in series [2], in series [11], in [12], in [4], in series [5] and in series [13] was greater than 80% in each case. Moreover, the mortality at 400 ppm in series [7] and in [8] was greater than 80% throughout. Moreover, in series [3], the mortality at 25 ppm was greater than 80%.

As to `COCON1C(=O)C(c2c(F)ccc(C)c2Cl)=C(O)C12CCN(OC)CC2` [P2.60], the melting point was in the range of 155 to 158 °C.

Compound `COCCON1C(=O)C(c2cc(Br)c(C)cc2C)=C(O)C12CCN(OC)CC2` [P2.73] came in with a melting point of 63 to 64 °C.

The compound `CON1CCC2(CC1)C(O)=C(c1cc(Br)c(C)cc1C)C(=O)N2OC` [P2.75] had a melting point of 86 to 87 °C.

As to `COCCON1C(=O)C(c2cc(Br)c(F)cc2C)=C(O)C12CCN(OC)CC2` [P2.87], the melting point fell in the range of 71 to 74 °C.

Regarding `COCON1C(=O)C(c2cc(Br)c(F)cc2C)=C(O)C12CCN(OC)CC2` [P2.89], the melting point is 64 to 67 °C.

Compound `CON1CCC2(CC1)C(O)=C(c1c(C)cc(C)cc1C)C(=O)N2OCC1CCCCC1` [P2.96] registered a melting point of 169 to 172 °C.

`COCCON1C(=O)C(c2c(C)cc(Cl)cc2C)=C(O)C12CCN(OC)CC2` [P2.101] came in with a melting point of 161 to 164 °C.

For the compound `CON1CCC2(CC1)C(O)=C(c1c(C)cc(Cl)cc1C)C(=O)N2OC` [P2.102], the melting point is 88 to 92 °C.

The compound `COCON1C(=O)C(c2c(C)cc(Cl)cc2C)=C(O)C12CCN(OC)CC2` [P2.104] displayed a melting point of 176 to 178 °C.

For the compound `CON1CCC2(CC1)C(O)=C(c1c(C)cc(Cl)cc1C)C(=O)N2OC1CCCO1` (stereo not drawn) [P2.105], the melting point lay within 137 to 139 °C.
